Key:
Type in all cases: in vivo
[1] = test system: barnyardgrass (Echinochloa crus-galli); assay: Test A pre-/postemergence plant response; details: for Barnyardgrass plant response rating: visual injury, 0 to 100 scale (0 no effect, 100 complete control), approx. ten days
Summary of the method: (§1)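 Both pre- and postemergence treatments are applied simultaneously, using chemicals formulated in a non-phytotoxic solvent mixture with surfactant. Postemergence plants are 2–10 cm high with one to two leaves. After approximately ten days in a greenhouse, injury is scored visually from 0 (none) to 100 (complete control) relative to untreated plants.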

corn (Zea mays) = assay: Test A pre-/postemergence plant response; details: for Corn plant response rating: visual injury, 0 to 100 scale (0 no effect, 100 complete control), approx. ten days
Summary of the method: as §1

[2] = test system: giant foxtail (Setaria faberii); assay: Test A pre-/postemergence plant response; details: for Foxtail, Giant plant response rating: visual injury, 0 to 100 scale (0 no effect, 100 complete control), approx. ten days
Summary of the method: as §1

[3] = test system: large crabgrass (Digitaria sanguinalis); assay: Test A pre-/postemergence plant response; details: for Crabgrass, Large plant response rating: visual injury, 0 to 100 scale (0 no effect, 100 complete control), approx. ten days
Summary of the method: as §1

[4] = test system: morningglory (Ipomoea spp.); assay: Test A pre-/postemergence plant response; details: for Morningglory plant response rating: visual injury, 0 to 100 scale (0 no effect, 100 complete control), approx. ten days
Summary of the method: as §1

[5] = test system: pigweed (Amaranthus retroflexus); assay: Test A pre-/postemergence plant response; details: for Pigweed plant response rating: visual injury, 0 to 100 scale (0 no effect, 100 complete control), approx. ten days
Summary of the method: as §1

[6] = test system: velvetleaf (Abutilon theophrasti); assay: Test A pre-/postemergence plant response; details: for Velvetleaf plant response rating: visual injury, 0 to 100 scale (0 no effect, 100 complete control), approx. ten days
Summary of the method: as §1

[7] = test system: wheat (Triticum aestivum); assay: Test A pre-/postemergence plant response; details: for Wheat plant response rating: visual injury, 0 to 100 scale (0 no effect, 100 complete control), approx. ten days
Summary of the method: as §1

[8] = test system: canarygrass (Phalaris minor); assay: Test B postemergence plant response; details: Postemergence
Summary of the method: (§2)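 Plants at the 1- to 4-leaf stage (2 to 18 cm tall), grown in pots of peat moss/vermiculite medium with wetting agent and starter nutrients, received postemergence applications of test chemicals. After 13 to 15 days in a greenhouse, injury was rated visually against untreated controls on a 0 (no effect) to 100 (complete control) scale.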

[9] = test system: chickweed (Stellaria media); assay: Test B postemergence plant response; details: Postemergence
Summary of the method: as §2

[10] = test system: windgrass (Apera spica-venti); assay: Test B postemergence plant response; details: Postemergence
Summary of the method: as §2

[11] = test system: winter barley (Hordeum vulgare); assay: Test B postemergence plant response; details: Postemergence
Summary of the method: as §2

[12] = Postemergence, 125 g ai/ha, 0 to 100 scale where 0 is no effect and 100 is complete control
[13] = Preemergence, 125 g ai/ha, 0 to 100 scale, 0 = no effect, 100 = complete control
[14] = Preemergence, 500 g ai/ha, 0 to 100 scale, 0 = no effect, 100 = complete control
[15] = 31 g ai/ha, 0 to 100 scale (0 no effect, 100 complete control)
[16] = 62 g ai/ha, scale 0 to 100 (0 no effect, 100 complete control)
[17] = 125 g ai/ha, scale 0 to 100 (0 no effect, 100 complete control)
[18] = 250 g ai/ha, scale 0 to 100 (0 no effect, 100 complete control), 13 to 15 days

SMILES: COc1ccc(-n2c(-c3ccccc3)ncc(C(=O)C3=C(O)CCCC3=O)c2=O)cc1OC [Compound 218]
- Plant response rating, Barnyardgrass [1, 12]: 80
- Barnyardgrass plant response rating ([1]; Postemergence, 500 g ai/ha): 90
- Plant response rating, Barnyardgrass [1, 13]: 20
- Plant response rating, Barnyardgrass [1, 14]: 100
- Plant response rating, Corn (corn (Zea mays); [12]): 0
- Corn plant response rating (corn (Zea mays); Postemergence, 500 g ai/ha): 70
- Plant response rating, Corn (corn (Zea mays); [13]): 0
- Plant response rating, Corn (corn (Zea mays); [14]): 0
- Plant response rating, Foxtail, Giant [2, 12]: 40
- Foxtail, Giant plant response rating ([2]; Postemergence, 500 g ai/ha): 70
- Plant response rating, Foxtail, Giant [2, 13]: 0
- Plant response rating, Foxtail, Giant [2, 14]: 50
- Plant response rating, Crabgrass, Large [3, 12]: 20
- Crabgrass, Large plant response rating ([3]; Postemergence, 500 g ai/ha): 70
- Plant response rating, Crabgrass, Large [3, 13]: 10
- Plant response rating, Crabgrass, Large [3, 14]: 80
- Plant response rating, Morningglory [4, 12]: 80
- Morningglory plant response rating ([4]; Postemergence, 500 g ai/ha): 100
- Plant response rating, Morningglory [4, 13]: 0
- Plant response rating, Morningglory [4, 14]: 80
- Plant response rating, Pigweed [5, 12]: 100
- Pigweed plant response rating ([5]; Postemergence, 500 g ai/ha): 100
- Plant response rating, Pigweed [5, 13]: 20
- Plant response rating, Pigweed [5, 14]: 90
- Plant response rating, Velvetleaf [6, 12]: 100
- Velvetleaf plant response rating ([6]; Postemergence, 500 g ai/ha): 100
- Plant response rating, Velvetleaf [6, 13]: 50
- Plant response rating, Velvetleaf [6, 14]: 90
- Plant response rating, Wheat [7, 12]: 0
- Wheat plant response rating ([7]; Postemergence, 500 g ai/ha): 0
- Plant response rating, Wheat [7, 13]: 0
- Plant response rating, Wheat [7, 14]: 0
- Plant response rating, Canarygrass [8, 15]: 0
- Plant response rating, Canarygrass [8, 16]: 0
- Plant response rating, Canarygrass [8, 17]: 0
- Plant response rating, Canarygrass [8, 18]: 5
- Plant response rating, Chickweed [9, 15]: 100
- Plant response rating, Chickweed [9, 16]: 100
- Plant response rating, Chickweed [9, 17]: 100
- Plant response rating, Chickweed [9, 18]: 100
- Plant response rating, Windgrass [10, 15]: 10
- Plant response rating, Windgrass [10, 16]: 20
- Plant response rating, Windgrass [10, 18]: 45
- Plant response rating, Barley [11, 15]: 30
- Plant response rating, Barley [11, 16]: 30
- Plant response rating, Barley [11, 17]: 35
- Plant response rating, Barley [11, 18]: 35

SMILES: CCc1ccc(-n2c(-c3ccccc3)ncc(C(=O)C3=C(O)CCCC3=O)c2=O)cc1 [Compound 219]
- Plant response rating, Barnyardgrass [1, 12]: 90
- Barnyardgrass plant response rating ([1]; Postemergence, 500 g ai/ha): 90
- Plant response rating, Barnyardgrass [1, 13]: 40
- Plant response rating, Barnyardgrass [1, 14]: 100
- Plant response rating, Corn (corn (Zea mays); [12]): 0
- Corn plant response rating (corn (Zea mays); Postemergence, 500 g ai/ha): 30
- Plant response rating, Corn (corn (Zea mays); [13]): 0
- Plant response rating, Corn (corn (Zea mays); [14]): 0
- Plant response rating, Foxtail, Giant [2, 12]: 50
- Foxtail, Giant plant response rating ([2]; Postemergence, 500 g ai/ha): 90
- Plant response rating, Foxtail, Giant [2, 13]: 10
- Plant response rating, Foxtail, Giant [2, 14]: 80
- Plant response rating, Crabgrass, Large [3, 12]: 80
- Crabgrass, Large plant response rating ([3]; Postemergence, 500 g ai/ha): 100
- Plant response rating, Crabgrass, Large [3, 13]: 50
- Plant response rating, Crabgrass, Large [3, 14]: 100
- Plant response rating, Morningglory [4, 12]: 100
- Morningglory plant response rating ([4]; Postemergence, 500 g ai/ha): 100
- Plant response rating, Morningglory [4, 13]: 20
- Plant response rating, Morningglory [4, 14]: 80
- Plant response rating, Pigweed [5, 12]: 100
- Pigweed plant response rating ([5]; Postemergence, 500 g ai/ha): 100
- Plant response rating, Pigweed [5, 13]: 90
- Plant response rating, Pigweed [5, 14]: 100
- Plant response rating, Velvetleaf [6, 12]: 100
- Velvetleaf plant response rating ([6]; Postemergence, 500 g ai/ha): 100
- Plant response rating, Velvetleaf [6, 13]: 30
- Plant response rating, Velvetleaf [6, 14]: 90
- Plant response rating, Wheat [7, 12]: 0
- Wheat plant response rating ([7]; Postemergence, 500 g ai/ha): 30
- Plant response rating, Wheat [7, 13]: 0
- Plant response rating, Wheat [7, 14]: 20
- Plant response rating, Canarygrass [8, 15]: 35
- Plant response rating, Canarygrass [8, 16]: 55
- Plant response rating, Canarygrass [8, 17]: 55
- Plant response rating, Canarygrass [8, 18]: 55
- Plant response rating, Chickweed [9, 15]: 100
- Plant response rating, Chickweed [9, 16]: 100
- Plant response rating, Chickweed [9, 17]: 100
- Plant response rating, Chickweed [9, 18]: 100
- Plant response rating, Windgrass [10, 15]: 35
- Plant response rating, Windgrass [10, 16]: 40
- Plant response rating, Windgrass [10, 18]: 85
- Plant response rating, Barley [11, 15]: 0
- Plant response rating, Barley [11, 16]: 25
- Plant response rating, Barley [11, 17]: 30
- Plant response rating, Barley [11, 18]: 30

SMILES: CC1(C)CC(=O)C(C(=O)c2cnc(-c3ccccc3)n(-c3ccccc3)c2=O)=C(O)C1 [Compound 225]
- Plant response rating, Barnyardgrass [1, 12]: 90
- Barnyardgrass plant response rating ([1]; Postemergence, 500 g ai/ha): 100
- Plant response rating, Barnyardgrass [1, 13]: 20
- Plant response rating, Barnyardgrass [1, 14]: 90
- Plant response rating, Corn (corn (Zea mays); [12]): 10
- Corn plant response rating (corn (Zea mays); Postemergence, 500 g ai/ha): 50
- Plant response rating, Corn (corn (Zea mays); [13]): 0
- Plant response rating, Corn (corn (Zea mays); [14]): 20
- Plant response rating, Foxtail, Giant [2, 12]: 70
- Foxtail, Giant plant response rating ([2]; Postemergence, 500 g ai/ha): 90
- Plant response rating, Foxtail, Giant [2, 13]: 40
- Plant response rating, Foxtail, Giant [2, 14]: 80
- Plant response rating, Crabgrass, Large [3, 12]: 90
- Crabgrass, Large plant response rating ([3]; Postemergence, 500 g ai/ha): 100
- Plant response rating, Crabgrass, Large [3, 13]: 60
- Plant response rating, Crabgrass, Large [3, 14]: 100
- Plant response rating, Morningglory [4, 12]: 100
- Morningglory plant response rating ([4]; Postemergence, 500 g ai/ha): 100
- Plant response rating, Morningglory [4, 13]: 30
- Plant response rating, Morningglory [4, 14]: 80
- Plant response rating, Pigweed [5, 12]: 100
- Pigweed plant response rating ([5]; Postemergence, 500 g ai/ha): 100
- Plant response rating, Pigweed [5, 13]: 90
- Plant response rating, Pigweed [5, 14]: 100
- Plant response rating, Velvetleaf [6, 12]: 100
- Velvetleaf plant response rating ([6]; Postemergence, 500 g ai/ha): 100
- Plant response rating, Velvetleaf [6, 13]: 80
- Plant response rating, Velvetleaf [6, 14]: 100
- Plant response rating, Wheat [7, 12]: 0
- Wheat plant response rating ([7]; Postemergence, 500 g ai/ha): 40
- Plant response rating, Wheat [7, 13]: 0
- Plant response rating, Wheat [7, 14]: 30
- Plant response rating, Canarygrass ([8]; 16 g ai/ha, 0 to 100 scale): 55
- Plant response rating, Canarygrass [8, 15]: 60
- Plant response rating, Canarygrass [8, 16]: 85
- Plant response rating, Canarygrass [8, 17]: 85
- Plant response rating, Chickweed ([9]; 16 g ai/ha, 0 to 100 scale): 15
- Plant response rating, Chickweed [9, 15]: 25
- Plant response rating, Chickweed [9, 16]: 40
- Plant response rating, Chickweed [9, 17]: 95
- Plant response rating, Windgrass ([10]; 16 g ai/ha, 0 to 100 scale): 5
- Plant response rating, Windgrass [10, 15]: 50
- Plant response rating, Windgrass [10, 16]: 55
- Plant response rating, Barley ([11]; 16 g ai/ha, 0 to 100 scale): 5
- Plant response rating, Barley [11, 15]: 20
- Plant response rating, Barley [11, 16]: 35
- Plant response rating, Barley [11, 17]: 40

Source: patent US8952024B2, “Herbicidal pyrimidone derivatives” (E I du Pont de Nemours and Company, priority 2009, dated 2015)
